Measurements from publication PMC9611297, “Design, Synthesis, Anticancer Activity and Molecular Docking of New 1,2,3-Triazole-Based Glycosides Bearing 1,3,4-Thiadiazolyl, Indolyl and Arylacetamide Scaffolds” (Molecules, 2022).
Where two headings read alike, the source gives them in different places.

How the values were obtained:
[1] = test system: HCT-116 (human colorectal carcinoma) cell line; experiment: MTT cytotoxicity assay, HCT-116; conditions: read-out: IC50 (µM) ± SD HCT-116
Description: (§3) This test is based on MTT cleavage by mitochondrial dehydrogenases from viable cells [50, 51, 52]. […] After incubation, the media were removed, and 40 µL of MTT (2.5 mg mL^−1) was added to each well. Incubation was resumed for an additional 4 h. The purple formazan dye crystals were solubilized with 200 µL DMSO. Absorbance was measured at 590 nm in a Spectra Max Paradigm Multi-Mode microplate reader (Molecular Devices, LLC, San Jose, CA, USA). Relative cell viability was expressed as the mean percentage of viable cells compared to the untreated control cells.
(§4) All experiments were conducted in triplicate and repeated on three different days. All values are reported as mean ± SD. IC50 values were determined by SPSS Inc. probit analysis (IBM Corp., Armonk, NY, USA).

[2] = test system: MCF-7 (human breast adenocarcinoma) cell line; experiment: MTT cytotoxicity assay, MCF-7; conditions: read-out: IC50 (µM) ± SD MCF-7
Description: as §3, §4

MCF-7 cells [3] = experiment: Annexin V/PI apoptosis detection by flow cytometry; type: cell-based, human; conditions: MCF-7, 24 h, at IC50 concentration (7: 0.5 μM; 15: 0.6 μM); for Apoptosis Late: control 0.28%; for Apoptosis Early: control 0.46%; for Necrosis: control 1.25%; for Apoptosis Total: control 1.99
Description: The proportion of late apoptosis obtained with compounds 7 and 15 was higher than that of the early phase, leading to the induction of apoptosis and confirming the effectiveness of these derivatives in cancer therapy.
(§1) Apoptosis investigation and cell cycle analysis were performed by flow cytometry. MCF-7 cells were seeded at 8 × 10^4 and incubated at 37 °C in 5% CO2 overnight. After treatment with the tested compounds 7 and 15 for 24 h, cell pellets were collected and centrifuged (300 g, 5 min). For cell cycle analysis, cell pellets were fixed with 70% ethanol on ice for 15 min and collected again. The pellets were incubated with propidium iodide (PI) staining solution at room temperature for 1 h and analyzed with a Gallios flow cytometer (Beckman Coulter, Brea, CA, USA). Apoptosis detection was carried out by the FITC AnnexinV/PI commercial kit (Becton Dickenson, Franklin Lakes, NJ, USA) following the manufacturer’s protocol. The samples were analyzed by fluorescence-activated cell sorting (FACS) with a Gallios flow cytometer (Beckman Coulter, Brea, CA, USA) within 1 h after staining. Data were analyzed using Kaluza v 1.2 (Beckman Coulter).

EGFR^WT = EGFR^WT (Homo sapiens, UniProt P00533); experiment: EGFR^WT kinase inhibition (HTRF assay); type: biochemical; conditions: ATP 1.65 μM, 30 min, room temperature, read-out: IC50 (Mean ± SEM) (µM) EGFR^WT
Description: (§2) A homogeneous time-resolved fluorescence (HTRF) assay was applied in this test (Sigma). […] The assay was conducted for 30 min at room temperature. The reaction was stopped by the addition of detection reagents that contained EDTA. […] Three independent experiments were performed for each concentration.

MCF-7 cells [4] = experiment: Cell cycle analysis (PI staining, flow cytometry); type: cell-based, human; conditions: MCF-7, 24 h treatment; for cell accumulation at sub-G1 phase (%pre G): untreated 1.99%; for cell accumulation at S phase (%DIP S): untreated 33.85%
Description: Moreover, the cessation of cell division at cell cycle checkpoints is considered one of the main roles of anticancer therapeutics.
as §1

HER-2 = HER-2 (Homo sapiens, UniProt P04626); experiment: HER-2 kinase inhibition (HTRF assay); type: biochemical; conditions: ATP 1.65 μM, 30 min, room temperature, read-out: IC50 (Mean ± SEM) (µM) HER-2 (converted)
Description: as §2

EGFR^T790M = EGFR^T790M (Homo sapiens, UniProt P00533, T790M); experiment: EGFR^T790M kinase inhibition (HTRF assay); type: biochemical; conditions: ATP 1.65 μM, 30 min, room temperature, read-out: IC50 (Mean ± SEM) (µM) EGFR^T790M
Description: as §2

[5] = MTT assay, 48 h incubation, mean ± SD

Sequence of EGFR^WT (P00533 25-1210): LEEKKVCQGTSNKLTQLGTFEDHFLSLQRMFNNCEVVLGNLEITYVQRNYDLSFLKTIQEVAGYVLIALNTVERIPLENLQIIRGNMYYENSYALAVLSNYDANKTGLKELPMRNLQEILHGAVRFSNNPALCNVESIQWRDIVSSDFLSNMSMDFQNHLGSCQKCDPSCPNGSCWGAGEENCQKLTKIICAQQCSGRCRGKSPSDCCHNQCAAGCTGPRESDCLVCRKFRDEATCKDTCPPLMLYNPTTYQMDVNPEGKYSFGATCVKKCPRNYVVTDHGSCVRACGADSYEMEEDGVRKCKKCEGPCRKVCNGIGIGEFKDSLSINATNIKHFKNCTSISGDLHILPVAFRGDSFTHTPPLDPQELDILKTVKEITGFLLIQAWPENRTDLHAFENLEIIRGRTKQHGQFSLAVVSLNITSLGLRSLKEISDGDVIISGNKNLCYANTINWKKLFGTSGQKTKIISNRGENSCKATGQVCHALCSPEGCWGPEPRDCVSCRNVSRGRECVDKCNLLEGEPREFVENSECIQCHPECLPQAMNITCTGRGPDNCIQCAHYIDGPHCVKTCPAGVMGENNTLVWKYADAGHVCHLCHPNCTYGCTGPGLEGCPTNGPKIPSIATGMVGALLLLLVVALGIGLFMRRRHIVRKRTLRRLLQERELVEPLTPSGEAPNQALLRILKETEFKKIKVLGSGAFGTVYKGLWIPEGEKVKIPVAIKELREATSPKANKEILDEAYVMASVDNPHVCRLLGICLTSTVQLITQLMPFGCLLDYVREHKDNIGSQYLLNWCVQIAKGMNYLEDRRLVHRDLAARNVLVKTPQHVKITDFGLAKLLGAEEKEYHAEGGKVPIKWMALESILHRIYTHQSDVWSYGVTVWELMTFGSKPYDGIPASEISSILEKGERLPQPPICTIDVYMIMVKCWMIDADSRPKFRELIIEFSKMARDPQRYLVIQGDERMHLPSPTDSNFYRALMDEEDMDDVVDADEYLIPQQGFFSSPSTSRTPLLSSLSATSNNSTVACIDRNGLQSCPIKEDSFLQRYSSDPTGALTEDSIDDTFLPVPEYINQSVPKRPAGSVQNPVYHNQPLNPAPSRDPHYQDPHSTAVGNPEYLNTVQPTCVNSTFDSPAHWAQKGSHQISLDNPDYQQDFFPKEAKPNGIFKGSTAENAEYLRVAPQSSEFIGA
Sequence of EGFR^T790M (P00533 25-1210 T790M): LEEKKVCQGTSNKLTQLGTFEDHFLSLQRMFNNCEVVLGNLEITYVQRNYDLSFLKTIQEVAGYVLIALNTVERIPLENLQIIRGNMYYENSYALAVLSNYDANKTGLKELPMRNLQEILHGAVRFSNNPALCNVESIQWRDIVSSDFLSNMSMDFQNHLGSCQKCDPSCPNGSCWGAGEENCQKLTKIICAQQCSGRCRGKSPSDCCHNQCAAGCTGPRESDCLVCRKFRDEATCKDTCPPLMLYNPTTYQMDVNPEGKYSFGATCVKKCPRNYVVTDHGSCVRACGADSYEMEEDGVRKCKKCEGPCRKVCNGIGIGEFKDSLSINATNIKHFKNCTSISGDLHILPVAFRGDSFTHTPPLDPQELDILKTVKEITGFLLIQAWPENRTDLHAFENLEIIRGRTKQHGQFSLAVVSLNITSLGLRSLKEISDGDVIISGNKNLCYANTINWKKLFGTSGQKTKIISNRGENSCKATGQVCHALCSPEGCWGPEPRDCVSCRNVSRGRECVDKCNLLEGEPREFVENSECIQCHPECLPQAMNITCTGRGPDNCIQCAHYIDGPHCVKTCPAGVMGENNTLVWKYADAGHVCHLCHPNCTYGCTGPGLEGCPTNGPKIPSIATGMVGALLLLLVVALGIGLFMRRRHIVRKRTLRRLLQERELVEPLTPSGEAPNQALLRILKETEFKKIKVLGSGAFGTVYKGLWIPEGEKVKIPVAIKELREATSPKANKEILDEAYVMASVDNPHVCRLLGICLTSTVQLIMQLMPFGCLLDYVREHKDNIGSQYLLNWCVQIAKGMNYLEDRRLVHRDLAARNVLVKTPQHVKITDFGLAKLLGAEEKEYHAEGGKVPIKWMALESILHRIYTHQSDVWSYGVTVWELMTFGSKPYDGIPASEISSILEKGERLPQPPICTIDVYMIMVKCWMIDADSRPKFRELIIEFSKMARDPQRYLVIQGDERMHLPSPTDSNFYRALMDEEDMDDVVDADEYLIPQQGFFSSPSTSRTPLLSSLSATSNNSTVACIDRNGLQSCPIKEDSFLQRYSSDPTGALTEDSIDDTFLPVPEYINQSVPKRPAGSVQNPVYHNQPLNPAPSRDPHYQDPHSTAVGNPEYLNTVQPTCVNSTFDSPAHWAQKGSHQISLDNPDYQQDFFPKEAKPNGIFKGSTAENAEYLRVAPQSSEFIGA
Sequence of HER-2 (P04626 23-1255): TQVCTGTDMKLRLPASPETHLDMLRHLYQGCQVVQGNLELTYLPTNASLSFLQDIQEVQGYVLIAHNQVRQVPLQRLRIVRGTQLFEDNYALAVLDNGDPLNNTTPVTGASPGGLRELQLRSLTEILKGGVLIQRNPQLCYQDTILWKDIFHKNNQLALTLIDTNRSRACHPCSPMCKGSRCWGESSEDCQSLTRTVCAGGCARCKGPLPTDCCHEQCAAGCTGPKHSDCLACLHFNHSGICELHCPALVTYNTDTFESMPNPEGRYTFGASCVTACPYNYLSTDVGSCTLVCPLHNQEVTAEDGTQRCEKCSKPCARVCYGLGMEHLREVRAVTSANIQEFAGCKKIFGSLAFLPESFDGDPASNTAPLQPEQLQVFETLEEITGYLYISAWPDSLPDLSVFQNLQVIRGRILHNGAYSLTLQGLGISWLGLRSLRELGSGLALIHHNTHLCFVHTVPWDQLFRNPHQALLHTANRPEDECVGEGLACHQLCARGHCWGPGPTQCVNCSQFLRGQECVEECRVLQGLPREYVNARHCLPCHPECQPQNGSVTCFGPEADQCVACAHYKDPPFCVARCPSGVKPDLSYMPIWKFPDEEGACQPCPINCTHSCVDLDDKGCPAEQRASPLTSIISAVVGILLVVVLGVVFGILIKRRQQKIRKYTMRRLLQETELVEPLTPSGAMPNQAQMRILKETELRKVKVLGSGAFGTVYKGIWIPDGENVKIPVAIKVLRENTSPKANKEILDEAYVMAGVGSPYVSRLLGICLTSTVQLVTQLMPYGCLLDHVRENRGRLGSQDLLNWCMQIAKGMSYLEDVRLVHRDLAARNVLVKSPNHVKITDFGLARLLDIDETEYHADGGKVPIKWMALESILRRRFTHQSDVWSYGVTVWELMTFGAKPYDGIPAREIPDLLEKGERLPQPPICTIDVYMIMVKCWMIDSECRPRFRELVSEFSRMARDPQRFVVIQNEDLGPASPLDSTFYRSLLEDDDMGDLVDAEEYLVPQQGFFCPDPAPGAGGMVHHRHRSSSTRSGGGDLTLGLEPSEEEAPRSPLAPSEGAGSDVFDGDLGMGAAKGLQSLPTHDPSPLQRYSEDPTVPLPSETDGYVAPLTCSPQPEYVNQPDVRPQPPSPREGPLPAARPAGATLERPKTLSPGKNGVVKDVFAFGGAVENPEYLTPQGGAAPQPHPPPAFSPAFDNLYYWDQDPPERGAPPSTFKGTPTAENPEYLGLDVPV

SMILES | IC50 ([1]; Homo sapiens, HCT-116, 48 h) [µM] | IC50 ([2]; Homo sapiens, MCF7, 48 h) [µM] | melting point [°C] | other results
CCn1cc(/C=N\c2nnc(S)s2)c2ccccc21 [Compound 1] | 46.9 ± 0.5 | 18.1 ± 0.2 |  | 
CCn1cc(C=Nc2nnc(SCCBr)s2)c2ccccc21 [Compound 2, N-(5-((2-Bromoethyl)thio)-1,3,4-thiadiazol-2-yl)-1-(1-ethyl-1H-indol-3-yl)methanimine] |  |  | 90 to 92 | IC50 [1, 5]: 52.7 ± 0.6 µM; IC50 [2, 5]: 14.1 ± 0.3 µM
CCn1cc(C=Nc2nnc(SCCN=[N+]=[N-])s2)c2ccccc21 [Compound 3, N-(5-((2-Azidoethyl)thio)-1,3,4-thiadiazol-2-yl)-1-(1-ethyl-1H-indol-3-yl)methanimine] | 30.8 ± 0.4 | 1.1 ± 0.1 | 101 to 102 | 
CCn1cc(C=Nc2nnc(SCCn3cc(CO[C@@H]4O[C@H](COC(C)=O)[C@@H](OC(C)=O)[C@H](OC(C)=O)[C@H]4OC(C)=O)nn3)s2)c2ccccc21 [Compound 5, 1-(1-Ethyl-1H-indol-3-yl)-N-(5-((2-(4-({[2,3,4,6-tetra-O-acetyl-β-D-glucopyranosyl]oxy}methyl)-1H-1,2,3-triazol-1-yl)ethyl)thio)-1,3,4-thiadiazol-2-yl)methanimine] | 22.6 ± 0.2 | 13.9 ± 0.2 | 131 to 132 | 
CCn1cc(C=Nc2nnc(SCCn3cc(CO[C@@H]4OC[C@@H](OC(C)=O)[C@H](OC(C)=O)[C@H]4OC(C)=O)nn3)s2)c2ccccc21 [Compound 6, 1-(1-Ethyl-1H-indol-3-yl)-N-(5-((2-(4-({[2,3,4-tri-O-acetyl-β-D-xylopyranos-yl]oxy}methyl)-1H-1,2,3-triazol-1-yl)ethyl)thio)-1,3,4-thiadiazol-2-yl)methanimine] | 20.8 ± 0.2 | 10.8 ± 1.5 | 136 to 138 | 
CCn1cc(C=Nc2nnc(SCCn3cc(CO[C@@H]4O[C@H](CO)[C@@H](O)[C@H](O)[C@H]4O)nn3)s2)c2ccccc21 [Compound 7, 1-(1-Ethyl-1H-indol-3-yl)-N-(5-((2-(4-({[β-D-glucopyranosyl]oxy}methyl)-1H-1,2,3-triazol-1-yl)ethyl)thio)-1,3,4-thiadiazol-2-yl)methanimine] | 15.5 ± 0.2 | 0.5 | 210 to 213 | Apoptosis Late (MCF-7 cells [3]): 18.81%; Apoptosis Early (MCF-7 cells [3]): 4.39%; Necrosis (MCF-7 cells [3]): 11.41%; Apoptosis Total (MCF-7 cells [3]): 34.61%; IC50 (EGFR^WT): 0.3 ± 0.01 µM; cell accumulation at sub-G1 phase (%pre G) (MCF-7 cells [4]): 34.61%; cell accumulation at S phase (%DIP S) (MCF-7 cells [4]): 43.51%; IC50 (HER-2): 2.25 ± 0.3 µM; IC50 (EGFR^T790M): 1.12 ± 0.55 µM
CCn1cc(C=Nc2nnc(SCCn3cc(CO[C@@H]4OC[C@@H](O)[C@H](O)[C@H]4O)nn3)s2)c2ccccc21 [Compound 8, 1-(1-Ethyl-1H-indol-3-yl)-N-(5-((2-(4-({[β-D-Xylopyranosyl]oxy}methyl)-1H-1,2,3-triazol-1-yl)ethyl)thio)-1,3,4-thiadiazol-2-yl)methanimine] | 4.6 ± 0.1 | 4.2 ± 0.1 | 203 to 204 | IC50 (EGFR^WT): 0.38 ± 0.05 µM; IC50 (HER-2): 2.77 ± 0.13 µM; IC50 (EGFR^T790M): 1.95 ± 0.02 µM
Cc1ccc(NC(=O)CN=[N+]=[N-])cc1 [Compound 9a] | 42.3 ± 0.6 | 24.1 ± 0.3 |  | 
[N-]=[N+]=NCC(=O)Nc1ccc(F)cc1 [Compound 9b] | 33.3 ± 0.4 | 26.4 ± 0.3 |  | 
CC(=O)O[C@@H]1[C@@H](OC(C)=O)[C@H](OCc2cn(CC(=O)Nc3ccc(C)cc3)nn2)OC[C@H]1OC(C)=O [Compound 11, 2-(4-({[2,3,4-Tri-O-acetyl-β-D-xylopyranosyl]oxy}methyl)-1H-1,2,3-triazol-1-yl)-N-(p-tolyl)acetamide] | 15.4 ± 0.2 | 0.8 | 95 to 96 | IC50 (EGFR^WT): 6.45 ± 0.1 µM; IC50 (HER-2): 8.6 ± 0.2 µM; IC50 (EGFR^T790M): 11.8 ± 0.05 µM
CC(=O)OC[C@H]1O[C@@H](OCc2cn(CC(=O)Nc3ccc(C)cc3)nn2)[C@H](OC(C)=O)[C@@H](OC(C)=O)[C@H]1OC(C)=O [Compound 12, 2-(4-({[2,3,4,6-Tetra-O-acetyl-β-D-galactopyranosyl]oxy}methyl)-1H-1,2,3-triazol-1-yl)-N-(p-tolyl)acetamide] | 2.2 ± 0.1 | 5.7 ± 0.1 | 98 to 99 | IC50 (EGFR^WT): 12.7 ± 0.15 µM; IC50 (HER-2): 18.4 µM; IC50 (EGFR^T790M): 15.2 ± 0.2 µM
CC(=O)O[C@@H]1[C@@H](OC(C)=O)[C@H](OCc2cn(CC(=O)Nc3ccc(F)cc3)nn2)OC[C@H]1OC(C)=O [Compound 13, 2-(4-({[2,3,4-Tri-O-acetyl-β-D-xylopyranosyl]oxy}methyl)-1H-1,2,3-triazol-1-yl)-N-(4-fluorophenyl)acetamide] | 38.2 ± 0.5 | 34.4 ± 0.4 | 142 to 144 | 
CC(=O)OC[C@H]1O[C@@H](OCc2cn(CC(=O)Nc3ccc(F)cc3)nn2)[C@H](OC(C)=O)[C@@H](OC(C)=O)[C@H]1OC(C)=O [Compound 14, 2-(4-({[2,3,4,6-Tetra-O-acetyl-β-D-galactopyranosyl]oxy}methyl)-1H-1,2,3-triazol-1-yl)-N-(4-fluorophenyl)acetamide] | 33.8 ± 0.3 | 35.3 ± 0.3 |  | 
Cc1ccc(NC(=O)Cn2cc(CO[C@@H]3OC[C@@H](O)[C@H](O)[C@H]3O)nn2)cc1 [Compound 15, 2-(4-({[β-D-Xylopyranosyl]oxy}methyl)-1H-1,2,3-triazol-1-yl)-N-(p-tolyl)acetamide] | 11.4 ± 0.3 | 0.6 | 193 to 194 | Apoptosis Late (MCF-7 cells [3]): 25.48%; Apoptosis Early (MCF-7 cells [3]): 2.69%; Necrosis (MCF-7 cells [3]): 14.28%; Apoptosis Total (MCF-7 cells [3]): 42.45%; IC50 (EGFR^WT): 0.21 ± 0.05 µM; cell accumulation at sub-G1 phase (%pre G) (MCF-7 cells [4]): 42.45%; cell accumulation at S phase (%DIP S) (MCF-7 cells [4]): 52.08%; IC50 (HER-2): 2.18 ± 0.42 µM; IC50 (EGFR^T790M): 1.5 ± 0.11 µM
Cc1ccc(NC(=O)Cn2cc(CO[C@@H]3O[C@H](CO)[C@H](O)[C@H](O)[C@H]3O)nn2)cc1 [Compound 16, 2-(4-({[β-D-Galactopyranosyl]oxy}methyl)-1H-1,2,3-triazol-1-yl)-N-(p-tolyl)acetamide] | 35.7 ± 0.4 | 20.3 ± 0.9 | 199 to 200 | 
O=C(Cn1cc(CO[C@@H]2OC[C@@H](O)[C@H](O)[C@H]2O)nn1)Nc1ccc(F)cc1 [Compound 17, 2-(4-({[β-D-Xylopyranosyl]oxy}methyl)-1H-1,2,3-triazol-1-yl)-N-(4-fluorophenyl)acetamide] | 26.5 ± 0.3 | 30.1 ± 0.4 | 197 to 198 | 
O=C(Cn1cc(CO[C@@H]2O[C@H](CO)[C@H](O)[C@H](O)[C@H]2O)nn1)Nc1ccc(F)cc1 [Compound 18, 2-(4-({[β-D-Galactopyranosyl]oxy}methyl)-1H-1,2,3-triazol-1-yl)-N-(4-fluorophenyl)acetamide] | 28.8 ± 0.1 | 31.6 ± 0.5 |  | 
COc1cccc2c1C(=O)c1c(O)c3c(c(O)c1C2=O)C[C@@](O)(C(=O)CO)C[C@@H]3O[C@H]1C[C@H](N)[C@H](O)[C@H](C)O1 [Doxorubicin, reference compound] | 12.1 ± 0.2 | 9.4 ± 0.1 |  | 
